The subject of one data set is HIV-1 LAI.04. The data set can be described thus: Anti-HIV activity in MT4 cell cultures: p24 production. The data set is classed as cell-based. Conditions: for inhibition of HIV-1 (in words): MT-4 cell line, concentration of 5 μM. The protocol:
(§1) Human T-lymphocyte MT-4 or CEM cells were obtained from the American Type Culture Collection (Manassas, Va.) and cultivated in RPMI 1640 medium supplemented with 10% fetal bovine serum 2 mM L-glutamine and 0.075 M NaHCO3.
(§2) HIV-1(IIIB) was provided by Dr. R. C. Gallo and Dr. M. Popovic (at that time at the NCI, National Institutes of Health, Bethesda). A closely related HIV-1 variant (LAI.04) was obtained from the NIH AIDS Reagent Program.
Briefly, CEM cells (4.5×10^5 cells per ml) were suspended in fresh culture medium and infected with HIV-1 at 100 CCID50 (cell culture infective dose-50) per ml of cell suspension. Then 100 μl of the infected cell suspension were transferred to microplate wells, mixed with 100 μl of the appropriate dilutions of the test compounds, and further incubated at 37° C. After 4-5 days, giant cell formation was recorded microscopically in the CEM cell cultures. […] MT4 cells (1×10^4 cells per ml) were suspended in fresh culture medium and infected with 10 uL of HIV-1LAI.04 viral stock at 260 CCID50 (cell culture infective dose-50) per ml of cell suspension. Then infected cell suspensions were transferred to microplate wells, mixed with 1 mL of the appropriate dilutions of the test compounds, and further incubated at 37° C. […]

The next data set concerns the target HIV-1 RT (Human immunodeficiency virus type 1 group M subtype B, UniProt P03366). The data set can be described thus: Inhibition of HIV-1 RT. It is filed as biochemical.
Data set [1] can be described thus: Cytostatic activity in CEM cell cultures. The data set is classed as cell-based. Conditions: human, CEM T-lymphocyte cells. The protocol:
as §1

A further data set concerns HIV-2(ROD). The data set is described as follows: Anti-HIV activity in CEM cell cultures: prevention of giant cell (syncytium) formation, HIV-2(ROD). It is filed as cell-based. Conditions: Human immunodeficiency virus 2, CCRF-CEM, read-out: EC50 HIV-2(ROD).
A further data set deals with HIV-1(IIIB). The data set is described as follows: Anti-HIV activity in CEM cell cultures: prevention of giant cell (syncytium) formation, HIV-1(IIIB). The data set is classed as cell-based. Particulars: concentration preventing syncytium formation by 50%, 4-5 days. The protocol:
as §1, §2
Briefly, CEM cells (4.5×10^5 cells per ml) were suspended in fresh culture medium and infected with HIV-1 at 100 CCID50 (cell culture infective dose-50) per ml of cell suspension. Then 100 μl of the infected cell suspension were transferred to microplate wells, mixed with 100 μl of the appropriate dilutions of the test compounds, and further incubated at 37° C. After 4-5 days, giant cell formation was recorded microscopically in the CEM cell cultures. […] MT4 cells (1×10^4 cells per ml) were suspended in fresh culture medium and infected with 10 uL of HIV-1LAI.04 viral stock at 260 CCID50 (cell culture infective dose-50) per ml of cell suspension. Then infected cell suspensions were transferred to microplate wells, mixed with 1 mL of the appropriate dilutions of the test compounds, and further incubated at 37° C. After 7 days, p24 production was measured in the MT4 cell cultures supernatant.

Another data set has as its system HIV-1 X4 LAI.04. The data set is described as follows: HIV-1 replication in ex vivo human tonsillar tissue culture: p24gag in culture medium. It is filed as cell-based. Particulars: for EC50 / EC90: Human immunodeficiency virus 1; for EC50 / EC90 / EC75: ex vivo human tonsillar tissue, X4 LAI.04, p24gag. How it is done: Tonsillar tissues from routine surgery were obtained from the Children's National Medical Center, Washington D.C. Tissues were dissected into 2-mm^3 blocks and placed onto collagen sponge gels at the air-liquid interface. Tissue blocks were cultured in RPMI 1640 medium containing 15% heat-inactivated fetal calf serum, nonessential amino acids (1 mM), sodium pyruvate (1 mM), amphotericin B (2.5 μg/mL) and gentamicin (50 μg/mL). The culture medium was changed every 3 days and prodrugs were replenished. Blocks of human lymphoid tonsillar tissues were inoculated ex vivo with X4LAI.04 and treated with increasing concentration of each prodrug (0,1; 0.5; 1; 5 and 10 μM). HIV-1 replication was monitored by measuring p24gag accumulated in culture media over 3 day periods. For each donor, HIV-1 replication in 9 treated blocks was compared with that in 9 untreated blocks from the same donor.

Where [2] appears, read: MT4 cell cultures, HIV-1 LAI.04, 50% suppression of p24 production, read-out: EC50.
The mark [3] stands for this setting: CEM cell cultures, 50% effective concentration.
[4] abbreviates: Human immunodeficiency virus 1, IIIB, CCRF-CEM, read-out: EC50 HIV-1(IIIB), CEM cell cultures.
Where [5] appears, read: Human immunodeficiency virus 1, MT4.

Like-named read-outs stand apart in the source and are kept apart here.

In general, EC50 refers to the midpoint of the concentration-response curve. The CC50 is the concentration giving 50% cytotoxicity. In general, EC90 refers to the concentration needed for an effect of 90%. The low end stands for greater potency, the high end for weaker potency. For orientation: EC75 means the concentration at which the effect reaches the 75% level. Higher therefore signals weaker potency. Usually inhibition stands for how much of the control response was suppressed.

As to `Nc1nc2c(ncn2COCCOP(=O)(O)O)c(=O)[nH]1` [ACV monophosphate, reference compound], the EC50 in the data set with HIV-1 LAI.04 (setting [2]) was determined as 100 µM. Besides, in the data set with HIV-1 LAI.04, the “inhibition of HIV-1 (in words)” value is reported as “inefficient”.
Turning to `Nc1nc2c(ncn2COCCOP(=O)(O)OP(=O)(O)OP(=O)(O)O)c(=O)[nH]1` [ACV triphosphate, reference compound], the “inhibition of HIV-1 RT (in words)” value at HIV-1 RT was “potent inhibitor”. The half-maximal effective concentration (EC50) in the data set with HIV-1 LAI.04 (setting [2]) is 50 µM.
`Nc1nc2c(ncn2COCCO)c(=O)[nH]1` [ACV, Acyclovir, reference compound]: the CC50 in data set [1] is over 250 µM. Besides, the EC50 in the data set with HIV-2(ROD) (setting [3]) was over 250 µM. For the same compound, the “inhibition of HIV-1 (in words)” value with HIV-1 LAI.04 was “inefficient”. Further, the “effect on replication of HIV-1 (in words)” value in the data set with HIV-1 LAI.04 (MT-4 cells, at low concentrations) is reported as “does not affect HIV-1 replication at all”.
`COC(=O)[C@H](C)NP(=O)(OCCOCn1cnc2c(=O)[nH]c(N)nc21)Oc1ccccc1` (stereo partly drawn) [Cf 1811, acyclovir-[1-phenyl-(methoxy-L-alaninyl)]phosphate]: in data set [1], it took 67 µM to reach half-maximal cytotoxicity (CC50). Moreover, the EC50 is 16 µM in the data set with HIV-1(IIIB) (setting [4]), 26 µM in the data set with HIV-2(ROD), under 0.1 µM in the data set on HIV-1 X4 LAI.04 and 15 µM in the data set on HIV-1 LAI.04 (setting [5]). The compound also had an EC90 with HIV-1 X4 LAI.04 of 0.5 µM. Also, the EC75 in the data set on HIV-1 X4 LAI.04 was found to be 0.1 µM.
Turning to `C[C@H](NP(=O)(OCCOCn1cnc2c(=O)[nH]c(N)nc21)Oc1cccc2ccccc12)C(=O)OCc1ccccc1` (stereo partly drawn) [Cf 2574, acyclovir-[1-naphthyl(benzoxy-L-alaninyl)]phosphate], the CC50 in data set [1] turned out to be 17 µM. In addition, the EC50 in the data set with HIV-1(IIIB) (setting [4]) is 17.5 µM; in the data set with HIV-2(ROD), 7.3 µM; in the data set on HIV-1 X4 LAI.04, under 0.1 µM; with HIV-1 LAI.04 (setting [5]) it was 0.8 µM. In addition, in the data set with HIV-1 X4 LAI.04, the 90% effect level (EC90) was put at 0.9 µM. In the data set with HIV-1 X4 LAI.04, the EC75 came to 0.62 µM.
`CCCOC(=O)[C@H](C)NP(=O)(OCCOCn1cnc2c(=O)[nH]c(N)nc21)Oc1cccc2ccccc12` (stereo partly drawn) [Cf 2629, acyclovir-[1-naphthyl(n-propoxy-L-alaninyl)]phosphate] had a CC50 in data set [1] of 22 µM. Further, the EC50 in the data set with HIV-1(IIIB) (setting [4]) is 3.2 µM; in the data set with HIV-1(IIIB) (read-out: EC50 HIV-1(IIIB), CEM cell cultures) it was 3.4 µM; in the data set with HIV-2(ROD), 7.4 µM; with HIV-1 X4 LAI.04 it was under 0.1 µM; in the data set with HIV-1 LAI.04 (setting [5]), 10 µM. In the data set with HIV-1 X4 LAI.04, this compound displayed an EC90 of 1.5 µM. Moreover, the EC75 in the data set with HIV-1 X4 LAI.04 worked out at 0.4 µM.
In data set [1], `C[C@H](NP(=O)(OCCOCn1cnc2c(=O)[nH]c(N)nc21)Oc1ccccc1)C(=O)OCc1ccccc1` (stereo partly drawn) [Cf 2648, acyclovir-[1-phenyl-(benzoxy-L-alaninyl)]phosphate] registered a CC50 of 33 µM. Moreover, the EC50 is 3.2 µM with HIV-1(IIIB) (setting [4]), 8.8 µM with HIV-2(ROD), under 0.1 µM with HIV-1 X4 LAI.04 and 8 µM in the data set on HIV-1 LAI.04 (setting [5]). For the same compound, the 90% effect concentration (EC90) in the data set on HIV-1 X4 LAI.04 stood at 0.55 µM. The compound also gave an EC75 in the data set with HIV-1 X4 LAI.04 of under 0.1 µM.
Compound `COC(=O)[C@H](C)NP(=O)(OCCOCn1cnc2c(=O)[nH]c(N)nc21)Oc1cccc2ccccc12` (stereo partly drawn) [Cf 2649, acyclovir-[1-naphthyl(methoxy-L-alaninyl)]phosphate] showed a CC50 in data set [1] of 57 µM. Besides, the EC50 with HIV-1(IIIB) (setting [4]) is 9.7 µM; with HIV-2(ROD) it was 9.3 µM; in the data set on HIV-1 X4 LAI.04, under 0.1 µM; in the data set with HIV-1 LAI.04 (setting [5]) it was 3 µM. In the data set on HIV-1 X4 LAI.04, this compound came in with an EC90 of 0.1 µM. Further, the EC75 in the data set on HIV-1 X4 LAI.04 was under 0.1 µM. Moreover, in the data set on HIV-1 X4 LAI.04 (human tonsillar tissue, 27 blocks, LAI.04, drug replenished every three days, p24 ELISA), the “suppression of HIV-1 replication, time course (FIG. 1, in words)” value was “efficient suppression of HIV replication”. In addition, the inhibition at 5 µM in the data set on HIV-1 LAI.04 (Human immunodeficiency virus 1, MT4, read-out: inhibition of replication of HIV-1) turned out to be 99%. Further, the “dose-dependency of HIV suppression (FIG. 2, in words)” value with HIV-1 LAI.04 (MT4 cells, LAI.04, day 3 post-infection, p24 ELISA) was “suppression of HIV replication by the drug in dose-dependent manner”.
Consider `Nc1nc2c(ncn2COCCOP(=O)(N[C@@H](Cc2ccccc2)C(=O)OCc2ccccc2)Oc2ccccc2)c(=O)[nH]1` (stereo partly drawn) [Cf 2650, acyclovir-[1-phenyl-(benzoxy-L-phenylalaninyl)]phosphate], for which the CC50 in data set [1] was 42 µM. Also, the 50% effective concentration (EC50) in the data set with HIV-1(IIIB) (setting [4]) was 24 µM; in the data set on HIV-2(ROD), 21 µM; in the data set on HIV-1 X4 LAI.04, under 0.1 µM; with HIV-1 LAI.04 (setting [5]), 16 µM. Further, the EC90 in the data set on HIV-1 X4 LAI.04 amounted to 3 µM. The concentration for an effect of 75% (EC75) in the data set with HIV-1 X4 LAI.04 came to 1.5 µM.
Compound `Nc1nc(O)c2ncn(COC(CO)CO)c2n1` [GCV, Ganciclovir, reference compound] yielded a CC50 in data set [1] of over 250 µM. Further, the EC50 was over 250 µM in the data set on HIV-1(IIIB) (Human immunodeficiency virus 1, IIIB, CCRF-CEM, CEM cell cultures, read-out: EC50 HIV-1(IIIB)) and over 250 µM with HIV-2(ROD) (setting [3]).

For the origin of these results see patent publication US8946243B2, “Compounds and methods for the treatment of viral infection” (The United States of America, as represented by the …, priority 2008, dated 2015).
